Laboratory results published in publication PMC5218480 (PLoS ONE, 2017).

System: MV-4-11 cells
Experiment: Gene expression microarray analysis (Affymetrix PrimeView) and GSEA
Type: cell-based, human
Set-up: RFU PODN (11730768_x_at) / Fold change /veh PODN (11730768_x_at) / RFU LINC00158 (11744669_a_at) / Fold change /veh LINC00158 (11744669_a_at) / RFU DUSP10 (11751237_a_at) / Fold change /veh DUSP10 (11751237_a_at) / RFU ID3 (11757404_x_at) / Fold change /veh ID3 (11757404_x_at) / RFU PLEKHG5 (11737974_s_at) / Fold change /veh PLEKHG5 (11737974_s_at) / RFU LRRC4B (11730491_at) / Fold change /veh LRRC4B (11730491_at) / RFU GIMAP4 (11747438_a_at) / Fold change /veh GIMAP4 (11747438_a_at) / RFU KRT8 (11758183_x_at) / Fold change /veh KRT8 (11758183_x_at) / RFU CNN1 (11734310_a_at) / Fold change /veh CNN1 (11734310_a_at) / RFU VPS37D (11726825_at) / Fold change /veh VPS37D (11726825_at) / RFU C10orf10 (11716522_x_at) / Fold change /veh C10orf10 (11716522_x_at) / RFU KIR2DL2 /// KIR2DL4 /// KIR2DL5A /// KIR2DL5B /// KIR2DS1 /// KIR2DS2 /// KIR2DS3 /// KIR2DS4 /// KIR3DL3 /// KIR3DL3 /// KIR3DS1 (11738374_at) / Fold change /veh KIR2DL2 /// KIR2DL4 /// KIR2DL5A /// KIR2DL5B /// KIR2DS1 /// KIR2DS2 /// KIR2DS3 /// KIR2DS4 /// KIR3DL3 /// KIR3DL3 /// KIR3DS1 (11738374_at) / RFU C1QL1 (11718748_at) / Fold change /veh C1QL1 (11718748_at) / RFU TMPRSS4 (11747572_a_at) / Fold change /veh TMPRSS4 (11747572_a_at) / RFU HAMP (11756126_x_at) / Fold change /veh HAMP (11756126_x_at) / RFU RNFT2 (11725882_a_at) / Fold change /veh RNFT2 (11725882_a_at) / RFU NR4A2 (11747474_a_at) / Fold change /veh NR4A2 (11747474_a_at) / RFU ABCC12 (11746883_a_at) / Fold change /veh ABCC12 (11746883_a_at) / RFU TMEM136 (11760407_x_at) / Fold change /veh TMEM136 (11760407_x_at) / RFU CLDN22 /// WWC2 (11732394_at) / Fold change /veh CLDN22 /// WWC2 (11732394_at) / RFU HLA-DPB1 (11760878_x_at) / Fold change /veh HLA-DPB1 (11760878_x_at) / RFU SPINT1 (11716480_a_at) / Fold change /veh SPINT1 (11716480_a_at) / RFU GAP43 (11754022_s_at) / Fold change /veh GAP43 (11754022_s_at) / RFU A4GNT (11735810_at) / Fold change /veh A4GNT (11735810_at) / RFU PRB3 (11715151_x_at) / Fold change /veh PRB3 (11715151_x_at) / RFU TUBB4B (11761932_at) / Fold change /veh TUBB4B (11761932_at) / RFU CAPN14 (11732068_a_at) / Fold change /veh CAPN14 (11732068_a_at) / RFU TMCC2 (11721928_a_at) / Fold change /veh TMCC2 (11721928_a_at) / RFU IRGQ (11745062_a_at) / Fold change /veh IRGQ (11745062_a_at) / RFU FAM174B (11720279_a_at) / Fold change /veh FAM174B (11720279_a_at) / RFU TMPRSS4 (11748680_a_at) / Fold change /veh TMPRSS4 (11748680_a_at) / RFU FAM212B (11763350_a_at) / Fold change /veh FAM212B (11763350_a_at) / RFU PLEKHG5 (11743358_a_at) / Fold change /veh PLEKHG5 (11743358_a_at) / RFU ZSCAN30 (11745921_a_at) / Fold change /veh ZSCAN30 (11745921_a_at) / RFU CMKLR1 (11741424_a_at) / Fold change /veh CMKLR1 (11741424_a_at) / RFU LOC101060620 /// MAPK8IP1 (11723275_at) / Fold change /veh LOC101060620 /// MAPK8IP1 (11723275_at) / RFU SPTSSB (11747773_x_at) / Fold change /veh SPTSSB (11747773_x_at) / RFU PRSS12 (11739890_at) / Fold change /veh PRSS12 (11739890_at) / RFU BIN1 (11741810_x_at) / Fold change /veh BIN1 (11741810_x_at) / RFU WNT11 (11732464_a_at) / Fold change /veh WNT11 (11732464_a_at) / RFU C10orf10 (11716521_a_at) / Fold change /veh C10orf10 (11716521_a_at) / RFU C5orf56 (11738089_at) / Fold change /veh C5orf56 (11738089_at) / RFU CYB561 (11721691_x_at) / Fold change /veh CYB561 (11721691_x_at) / RFU ANKRD19P (11752326_a_at) / Fold change /veh ANKRD19P (11752326_a_at) / RFU OR2T12 /// OR2T33 /// OR2T8 (11738714_s_at) / Fold change /veh OR2T12 /// OR2T33 /// OR2T8 (11738714_s_at) / RFU VCAN (11748164_a_at) / Fold change /veh VCAN (11748164_a_at) / RFU JSRP1 (11732532_at) / Fold change /veh JSRP1 (11732532_at) / RFU KRTAP10-11 (11738290_x_at) / Fold change /veh KRTAP10-11 (11738290_x_at) / RFU MYO3A (11730013_a_at) / Fold change /veh MYO3A (11730013_a_at) / RFU EBF3 (11725865_a_at) / Fold change /veh EBF3 (11725865_a_at) / RFU CAMK2N1 (11719241_x_at) / Fold change /veh CAMK2N1 (11719241_x_at) / RFU C5orf56 (11738088_a_at) / Fold change /veh C5orf56 (11738088_a_at) / RFU OLFML3 (11715873_a_at) / Fold change /veh OLFML3 (11715873_a_at) / RFU LOC100653217 /// NTM (11731650_a_at) / Fold change /veh LOC100653217 /// NTM (11731650_a_at) / RFU MAPK11 (11762145_a_at) / Fold change /veh MAPK11 (11762145_a_at) / RFU FIZ1 (11724087_x_at) / Fold change /veh FIZ1 (11724087_x_at) / RFU OASL (11726364_x_at) / Fold change /veh OASL (11726364_x_at) / RFU SOX15 (11748057_x_at) / Fold change /veh SOX15 (11748057_x_at) / RFU CD79A (11719716_a_at) / Fold change /veh CD79A (11719716_a_at) / RFU HIST1H1D (11736915_at) / Fold change /veh HIST1H1D (11736915_at) / RFU CASKIN2 (11723855_a_at) / Fold change /veh CASKIN2 (11723855_a_at) / RFU LOC730098 (11760151_x_at) / Fold change /veh LOC730098 (11760151_x_at) / RFU OR4N2 (11742367_at) / Fold change /veh OR4N2 (11742367_at) / RFU PRRT2 (11749266_a_at) / Fold change /veh PRRT2 (11749266_a_at) / RFU SNX32 (11753110_a_at) / Fold change /veh SNX32 (11753110_a_at) / RFU CDHR5 (11726645_a_at) / Fold change /veh CDHR5 (11726645_a_at) / RFU RCAN1 (11760418_a_at) / Fold change /veh RCAN1 (11760418_a_at) / RFU FAM167A (11723789_a_at) / Fold change /veh FAM167A (11723789_a_at) / RFU FAM26E (11764081_at) / Fold change /veh FAM26E (11764081_at) / RFU ISYNA1 (11749810_s_at) / Fold change /veh ISYNA1 (11749810_s_at) / RFU ACY1 (11761880_at) / Fold change /veh ACY1 (11761880_at) / RFU 11764098_at / Fold change /veh 11764098_at / RFU SAMD14 (11745864_x_at) / Fold change /veh SAMD14 (11745864_x_at) / RFU NPB (11741838_a_at) / Fold change /veh NPB (11741838_a_at) / RFU TMPRSS6 (11731388_a_at) / Fold change /veh TMPRSS6 (11731388_a_at) / RFU KRTAP10-2 (11738614_at) / Fold change /veh KRTAP10-2 (11738614_at) / RFU ARHGAP8 /// PRR5-ARHGAP8 (11727945_x_at) / Fold change /veh ARHGAP8 /// PRR5-ARHGAP8 (11727945_x_at) / RFU KRTAP5-7 /// NADSYN1 (11734609_at) / Fold change /veh KRTAP5-7 /// NADSYN1 (11734609_at) / RFU RASL12 (11751679_a_at) / Fold change /veh RASL12 (11751679_a_at) / RFU CDKN2B (11736163_a_at) / Fold change /veh CDKN2B (11736163_a_at) / RFU PRF1 (11729649_at) / Fold change /veh PRF1 (11729649_at) / RFU, ZNF638 /// ZNF638-IT1 / Fold change vs veh, ZNF638 /// ZNF638-IT1 / RFU, PANK3 / Fold change vs veh, PANK3 / RFU, SH3YL1 / Fold change vs veh, SH3YL1 / RFU, ZEB2 / Fold change vs veh, ZEB2 / RFU, NRIP1 / Fold change vs veh, NRIP1 / RFU, PTTG1IP / Fold change vs veh, PTTG1IP / RFU, CAPN2 / Fold change vs veh, CAPN2 / RFU, MED14 / Fold change vs veh, MED14 / RFU, SNORA58 / Fold change vs veh, SNORA58 / RFU, C1orf63 / Fold change vs veh, C1orf63 / RFU, LRRFIP1 / Fold change vs veh, LRRFIP1 / RFU, NDUFAF7 / Fold change vs veh, NDUFAF7 / RFU, SLC12A2 / Fold change vs veh, SLC12A2 / RFU, IBTK / Fold change vs veh, IBTK / RFU, ESF1 / Fold change vs veh, ESF1 / Fold change vs veh, TMEM50B / RFU, TAOK1 / Fold change vs veh, TAOK1 / RFU, ACBD3 / Fold change vs veh, ACBD3 / RFU, TMA16 / Fold change vs veh, TMA16 / RFU, RWDD3 / Fold change vs veh, RWDD3 / RFU, BCAT1 / Fold change vs veh, BCAT1 / RFU, EDEM3 / Fold change vs veh, EDEM3 / RFU, TMEM33 / Fold change vs veh, TMEM33 / RFU, WDR75 / Fold change vs veh, WDR75 / RFU, AHCTF1 / Fold change vs veh, AHCTF1 / RFU, TFRC / Fold change vs veh, TFRC / RFU, ZDHHC17 / Fold change vs veh, ZDHHC17 / RFU, NOM1 / Fold change vs veh, NOM1 / RFU, ARL8B / Fold change vs veh, ARL8B / RFU, ZBTB11 / Fold change vs veh, ZBTB11 / RFU, TAMM41 / Fold change vs veh, TAMM41 / RFU, KIAA1704 /// LOC100996395 / Fold change vs veh, KIAA1704 /// LOC100996395 / RFU, ING1 / Fold change vs veh, ING1 / RFU, TRMT61B / Fold change vs veh, TRMT61B / RFU, FUBP3 / Fold change vs veh, FUBP3 / RFU, TP53 / Fold change vs veh, TP53 / RFU, TNKS2 / Fold change vs veh, TNKS2 / RFU, ZFP14 / Fold change vs veh, ZFP14 / RFU, ACTR2 / Fold change vs veh, ACTR2 / RFU, PPP3R1 / Fold change vs veh, PPP3R1 / RFU, PIK3R1 / Fold change vs veh, PIK3R1 / RFU, HNRNPA1 / Fold change vs veh, HNRNPA1 / RFU, RNF170 / Fold change vs veh, RNF170 / RFU, ZNF28 / Fold change vs veh, ZNF28 / RFU, RNGTT / Fold change vs veh, RNGTT / RFU, OGT / Fold change vs veh, OGT / RFU, BRD1 / Fold change vs veh, BRD1 / RFU, MARS / Fold change vs veh, MARS / RFU, ZNF655 / Fold change vs veh, ZNF655 / RFU, FAHD1 / Fold change vs veh, FAHD1 / RFU, BDP1 / Fold change vs veh, BDP1 / RFU, LRRCC1 / Fold change vs veh, LRRCC1 / RFU, ARID1A / Fold change vs veh, ARID1A / RFU, ZNF146 / Fold change vs veh, ZNF146 / RFU, ZNF330 / Fold change vs veh, ZNF330 / RFU, GPN3 / Fold change vs veh, GPN3 / RFU, C9orf123 / Fold change vs veh, C9orf123 / RFU, N4BP2L2 / Fold change vs veh, N4BP2L2 / RFU, ARFIP1 / Fold change vs veh, ARFIP1 / RFU, FAM179B / Fold change vs veh, FAM179B / RFU, BCL10 / Fold change vs veh, BCL10 / RFU, UHRF1BP1L / Fold change vs veh, UHRF1BP1L / RFU, BET1 / Fold change vs veh, BET1 / RFU, CNOT2 / Fold change vs veh, CNOT2 / RFU, ZNF268 / Fold change vs veh, ZNF268 / Fold change vs veh, ZNF507 / RFU, DGCR2 / Fold change vs veh, DGCR2 / RFU, WDSUB1 / Fold change vs veh, WDSUB1 / Fold change vs veh, HSP90B1 /// MIR3652 / RFU, ADSS / Fold change vs veh, ADSS / RFU, GK / Fold change vs veh, GK / RFU, ZNF148 / Fold change vs veh, ZNF148 / RFU, TAF9 / Fold change vs veh, TAF9 / RFU, SLC1A5 / Fold change vs veh, SLC1A5 / RFU, SLMO2 / Fold change vs veh, SLMO2 / RFU, ABCC4 / Fold change vs veh, ABCC4 / RFU, LOC101060439 /// RAP1B / Fold change vs veh, LOC101060439 /// RAP1B / RFU, RFX7 / Fold change vs veh, RFX7 / RFU, GTPBP10 / Fold change vs veh, GTPBP10 / RFU, CNEP1R1 / Fold change vs veh, CNEP1R1 / RFU, BIVM-ERCC5 /// ERCC5 / Fold change vs veh, BIVM-ERCC5 /// ERCC5 / RFU, ILF3 / Fold change vs veh, ILF3 / RFU 11762660_at / Fold change /veh 11762660_at / RFU VCAN (11757783_s_at) / Fold change /veh VCAN (11757783_s_at) / RFU DDX43 (11728927_at) / Fold change /veh DDX43 (11728927_at) / RFU KRT8 (11758188_x_at) / Fold change /veh KRT8 (11758188_x_at) / RFU NKD1 (11759106_at) / Fold change /veh NKD1 (11759106_at) / RFU SRD5A1 (11742802_a_at) / Fold change /veh SRD5A1 (11742802_a_at) / RFU TPSAB1 /// TPSB2 (11721975_s_at) / Fold change /veh TPSAB1 /// TPSB2 (11721975_s_at) / RFU GSTM3 (11746129_a_at) / Fold change /veh GSTM3 (11746129_a_at) / RFU IL23R (11737362_x_at) / Fold change /veh IL23R (11737362_x_at) / RFU TMEM51 (11727254_a_at) / Fold change /veh TMEM51 (11727254_a_at) / RFU PIWIL2 (11732686_x_at) / Fold change /veh PIWIL2 (11732686_x_at) / RFU ORM1 (11744905_x_at) / Fold change /veh ORM1 (11744905_x_at) / RFU CCDC152 (11743942_at) / Fold change /veh CCDC152 (11743942_at) / RFU ECM1 (11717891_a_at) / Fold change /veh ECM1 (11717891_a_at) / RFU IL23R (11748794_a_at) / Fold change /veh IL23R (11748794_a_at) / RFU TNFAIP8L3 (11732012_x_at) / Fold change /veh TNFAIP8L3 (11732012_x_at) / RFU MBOAT4 (11741988_at) / Fold change /veh MBOAT4 (11741988_at) / RFU 11764193_at / Fold change /veh 11764193_at / RFU TMEM53 (11763286_at) / Fold change /veh TMEM53 (11763286_at) / RFU MAGEB2 (11727129_at) / Fold change /veh MAGEB2 (11727129_at) / RFU TMEM200A (11744735_a_at) / Fold change /veh TMEM200A (11744735_a_at) / RFU CCDC152 (11751479_a_at) / Fold change /veh CCDC152 (11751479_a_at) / RFU FAM211A (11726209_a_at) / Fold change /veh FAM211A (11726209_a_at) / RFU RGS16 (11746705_a_at) / Fold change /veh RGS16 (11746705_a_at) / RFU VCAN (11755009_s_at) / Fold change /veh VCAN (11755009_s_at) / RFU RHOB (11743442_s_at) / Fold change /veh RHOB (11743442_s_at) / RFU RGS16 (11720943_a_at) / Fold change /veh RGS16 (11720943_a_at) / RFU RGS16 (11720944_at) / Fold change /veh RGS16 (11720944_at) / RFU, VPS4B / Fold change vs veh, VPS4B / RFU, CREB1 / Fold change vs veh, CREB1 / RFU, DNAJC13 / Fold change vs veh, DNAJC13 / RFU, GNAQ / Fold change vs veh, GNAQ / RFU, CDK5R1 / Fold change vs veh, CDK5R1 / RFU, ZRANB3 / Fold change vs veh, ZRANB3 / RFU, CUL4A / Fold change vs veh, CUL4A / RFU, CCNY / Fold change vs veh, CCNY / RFU, UFL1 / Fold change vs veh, UFL1 / RFU, COG3 / Fold change vs veh, COG3 / RFU, DIAPH2 / Fold change vs veh, DIAPH2 / RFU, SKA2 / Fold change vs veh, SKA2 / RFU, AFF3 / Fold change vs veh, AFF3 / RFU, LMF1 / Fold change vs veh, LMF1 / RFU, IPO11 / Fold change vs veh, IPO11 / RFU, DFFB / Fold change vs veh, DFFB / RFU, FOXP1 / Fold change vs veh, FOXP1 / RFU, CARD8 / Fold change vs veh, CARD8 / RFU, STRN3 / Fold change vs veh, STRN3 / RFU, ADK / Fold change vs veh, ADK / RFU, RASSF2 / Fold change vs veh, RASSF2 / RFU, WIPF1 / Fold change vs veh, WIPF1 / RFU, LARP1B / Fold change vs veh, LARP1B / RFU, RASA1 / Fold change vs veh, RASA1 / RFU, RB1 / Fold change vs veh, RB1 / RFU, PPFIA1 / Fold change vs veh, PPFIA1 / RFU, MAT2A / Fold change vs veh, MAT2A / RFU, CCT5 / Fold change vs veh, CCT5 / RFU, WDR92 / Fold change vs veh, WDR92 / RFU, CUX1 / Fold change vs veh, CUX1 / RFU, TTC7A / Fold change vs veh, TTC7A / RFU, TMEM135 / Fold change vs veh, TMEM135 / RFU, DEPTOR / Fold change vs veh, DEPTOR / RFU, CPM / Fold change vs veh, CPM / RFU, DNAJB6 / Fold change vs veh, DNAJB6 / RFU, CACNA2D3 / Fold change vs veh, CACNA2D3 / RFU, DTX4 / Fold change vs veh, DTX4 / RFU, TFCP2 / Fold change vs veh, TFCP2 / RFU, GMCL1 /// GMCL1P1 / Fold change vs veh, GMCL1 /// GMCL1P1 / RFU, AEBP2 / Fold change vs veh, AEBP2 / RFU, SNHG1 /// SNORD22 /// SNORD25 /// SNORD26 /// SNORD27 /// SNORD28 /// SNORD29 /// SNORD31 / Fold change vs veh, SNHG1 /// SNORD22 /// SNORD25 /// SNORD26 /// SNORD27 /// SNORD28 /// SNORD29 /// SNORD31 / Fold change (Aza/veh), C12orf56 (ProbeSet 11735607_a_at) / Fold change (ACY-1035/veh), C12orf56 (ProbeSet 11735607_a_at) / Fold change (Aza/veh), FGFR1OP (ProbeSet 11751329_s_at) / Fold change (ACY-1035/veh), FGFR1OP (ProbeSet 11751329_s_at) / Fold change (Aza/veh), VPS36 (ProbeSet 11739960_a_at) / Fold change (ACY-1035/veh), VPS36 (ProbeSet 11739960_a_at) / RFU SYPL1 (11715823_x_at) / Fold change /veh SYPL1 (11715823_x_at) / RFU IGFBP7 (11715501_s_at) / Fold change /veh IGFBP7 (11715501_s_at) / RFU REEP3 (11722064_at) / Fold change /veh REEP3 (11722064_at) / RFU IGLL1 (11728026_x_at) / Fold change /veh IGLL1 (11728026_x_at): dose or concentration left out as unconfirmed
Conditions: ProbeSet 11716999_a_at; LIST D

For `Nc1ncn([C@@H]2O[C@H](CO)[C@@H](O)[C@H]2O)c(=O)n1` [azacitidine], the “RFU, RASA1” value was 172.86 RFU.
